# Values joined by “and” are separate entries in the source; they are usually repeats but may differ in a detail not shown here. Identical values can stand only once.
# Test system: 777334-354-R2-J4-PDC tumor spheroids with HUVEC/MSC, viability
# Test: Anticancer human tumor 777334-354-R2-J4-PDC patient-derived pancreatic adenocarcinoma cell line growth inhibition [GQUAD]
# Settings: for viability, T/C: stronger effect = lower value
# From the text: DNA G-quadruplex Stabilizer Agents in Combinations in Complex Spheroids
# A high-throughput screen of multi-cell type tumor spheroids was designed to identify active combinations of DNA G-quadruplex stabilizer agents and targeted small molecules. Complex spheroids include a stromal component modeled by human endothelial cells (HUVEC) and fibroblasts modeled by human mesenchymal stem cells (MSCs). The concentration ranges selected for each drug and investigational agent were based upon clinically achievable concentrations if the clinical Cmax of the agent was known.
# Compounds. The drugs and investigational agents: pidnarulex (CX-5461; NSC782164), APTO-253 (NSC789042), BRACO-19 (NSC847499), peposertib (NSC802822), ceralasertib (NSC780249), elimusertib (NSC800525), camonsertib (NSC841442), AZD-1390 (NSC803789), olaparib (NSC753686), talazoparib (NSC767125), ART-558 (NSC835418), sotorasib (NSC818433), MRTX-1133 (NSC836407), SN-38 (NSC673596), topotecan (NSC609699), etoposide (NSC141540), doxorubicin (NSC123127), gemcitabine (NSC613327), 5-fluorouracil (NSC19893), paclitaxel (NSC125973), vemurafenib (NSC761431), panobinostat (NSC761190), R-306465 (JNJ-16241199; NSC773264), adavosertib (NSC754352), TP-3654 (NSC805149), carboplatin (NSC241240), KSQ-4279 (NSC840948), and staurosporine (NSC755774) were obtained from the National Cancer Institute (NCI) Developmental Therapeutics Program Chemical Repository (34). The FDA-approved anticancer drug set is available from the NCI Developmental Therapeutics Program. […] The stock solutions were prepared in dimethyl sulfoxide (DMSO, Sigma-Aldrich, St. Louis, MO, cat. D2650) at 800-fold the tested concentration and stored at -70 degrees C prior to their use. All drugs and investigational agents were tested over a range starting from a high concentration at or near the clinical Cmax and decreasing in half-log increments. If the clinical Cmax for an agent had not been determined, the highest concentration tested was 10 microM.
# 2.3 Cell Culture. All cells were maintained in an incubator at 37 degrees C and 5% CO2 with 95% humidity. The PDC lines were cultured according to standard operating procedures established by the NCI PDMR. All PDCs were thawed and cultured in Matrigel-coated flasks prepared with a working solution of 1X Ham's F-12 nutrient mix, without supplementation (Invitrogen, cat. 11765054), 100 U/mL penicillin-streptomycin (Invitrogen, cat. 15140122), and 2.5% Matrigel (Corning Inc., cat. 354248) for the first three passages. The 857933-349-R-J2-PDC line was cultured in 6C/Colon 1B media, which includes advanced DMEM/F-12 (Thermo Fisher Scientific, cat. 12634028), 10 mM HEPES (Thermo Fisher Scientific, cat. 15630080), 1X GlutaMAX supplement (Thermo Fisher Scientific, cat. 35050061), 0.1 mg/mL primocin (InvivoGen, cat. ant-pm-2), 10% defined fetal bovine serum, heat inactivated (HyClone Laboratories Inc., cat. SH30070.03HI), 50% L-WRN conditioned media (ATCC, cat. CRL-3276), 1.25 mM N-Acetyl-L-cysteine (Sigma-Aldrich, cat. A9165), 10 mM nicotinamide (Sigma-Aldrich, cat. N0636), 1X B-27 supplement (Thermo Fisher Scientific, cat. 17504044), 1X N-2 supplement (Thermo Fisher Scientific, cat. 17502048), 10 microM Y-27632 dihydrochloride (Tocris Bioscience, cat. 1254), and 50 ng/mL human EGF recombinant protein (Thermo Fisher Scientific, cat. PHG0311). The 485176-168-R4-J1-PDC line was cultured in Panc media, which includes all 6C/Colon 1B media components plus 100 ng/mL human FGF-10 (Thermo Fisher Scientific, cat. 100-26), 500 nM SB-431542 (Selleckchem, cat. S1067), and gastrin (Tocris, cat. 3006).
# […]
# [1] = curve of first compound, second compound 0.0316 µM
# [2] = curve of first compound, second compound 0.1 µM
# [3] = curve of first compound, second compound 0.316 µM
# [4] = curve of first compound, second compound 1 µM
# [5] = curve of first compound, second compound 3.16 µM
# [6] = curve of first compound, second compound 10 µM
# [7] = second compound 0.0316 µM, first compound 0.0316 µM
# [8] = second compound 0.0316 µM, first compound 0.316 µM
# [9] = second compound 0.1 µM, first compound 0.0316 µM
# [10] = second compound 0.1 µM, first compound 0.316 µM
# [11] = second compound 0.316 µM, first compound 0.0316 µM
# [12] = second compound 0.316 µM, first compound 0.316 µM
# [13] = second compound 1 µM, first compound 0.0316 µM
# [14] = second compound 1 µM, first compound 0.316 µM
# [15] = second compound 3.16 µM, first compound 0.0316 µM
# [16] = second compound 3.16 µM, first compound 0.316 µM
# [17] = second compound 10 µM, first compound 0.0316 µM
# [18] = second compound 10 µM, first compound 0.316 µM
# 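Further: spheroids exposed to compounds for 7 days before readout.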
smiles,measurement,setting,value
CCc1c2c(nc3ccc(O)cc13)-c1cc3c(c(=O)n1C2)COC(=O)[C@]3(O)CC + CN(C)c1ccc(Nc2c3ccc(NC(=O)CCN4CCCC4)cc3nc3cc(NC(=O)CCN4CCCC4)ccc23)cc1,IC50,[1],5.23 nM
same,IC50,[2],4.26 nM
same,IC50,[3],5.24 nM
same,IC50,[4],4.96 nM
same,IC50,[5],3.16 nM
same,IC50,[6],4.78 nM
same,"viability, T/C","second compound 0.0316 µM, first compound 0.000999 µM",105%
same,"viability, T/C","second compound 0.0316 µM, first compound 0.00316 µM",57.8%
same,"viability, T/C","second compound 0.0316 µM, first compound 0.00999 µM",38.6%
same,"viability, T/C",[7],23.4%
same,"viability, T/C","second compound 0.0316 µM, first compound 0.0999 µM",15.9%
same,"viability, T/C",[8],9.58%
same,"viability, T/C","second compound 0.1 µM, first compound 0.000999 µM",85.1%
same,"viability, T/C","second compound 0.1 µM, first compound 0.00316 µM",51.9%
same,"viability, T/C","second compound 0.1 µM, first compound 0.00999 µM",39.6%
same,"viability, T/C",[9],22.4%
same,"viability, T/C","second compound 0.1 µM, first compound 0.0999 µM",14.7%
same,"viability, T/C",[10],11.4%
same,"viability, T/C","second compound 0.316 µM, first compound 0.000999 µM",79.6%
same,"viability, T/C","second compound 0.316 µM, first compound 0.00316 µM",61.9%
same,"viability, T/C","second compound 0.316 µM, first compound 0.00999 µM",34.6%
same,"viability, T/C",[11],21.4%
same,"viability, T/C","second compound 0.316 µM, first compound 0.0999 µM",15.3%
same,"viability, T/C",[12],9.02%
same,"viability, T/C","second compound 1 µM, first compound 0.000999 µM",84.3%
same,"viability, T/C","second compound 1 µM, first compound 0.00316 µM",57%
same,"viability, T/C","second compound 1 µM, first compound 0.00999 µM",38.8%
same,"viability, T/C",[13],23.9%
same,"viability, T/C","second compound 1 µM, first compound 0.0999 µM",13.8%
same,"viability, T/C",[14],8.31%
same,"viability, T/C","second compound 3.16 µM, first compound 0.000999 µM",74.9%
same,"viability, T/C","second compound 3.16 µM, first compound 0.00316 µM",49.3%
same,"viability, T/C","second compound 3.16 µM, first compound 0.00999 µM",31.9%
same,"viability, T/C",[15],24.7%
same,"viability, T/C","second compound 3.16 µM, first compound 0.0999 µM",15.9%
same,"viability, T/C",[16],9.07%
same,"viability, T/C","second compound 10 µM, first compound 0.000999 µM",79.5%
same,"viability, T/C","second compound 10 µM, first compound 0.00316 µM",57.9%
same,"viability, T/C","second compound 10 µM, first compound 0.00999 µM",35.8%
same,"viability, T/C",[17],26.8%
same,"viability, T/C","second compound 10 µM, first compound 0.0999 µM",19.6%
same,"viability, T/C",[18],9.4%
C#Cc1c(F)ccc2cc(O)cc(-c3ncc4c(N5CC6CCC(C5)N6)nc(OCC56CCCN5CC(F)C6)nc4c3F)c12 (stereo unspecified),"viability, T/C",compound 0.0316 µM,45.7% and 46.4% and 48.8%
same,"viability, T/C",compound 0.1 µM,38.8% and 41.4% and 41.3%
same,"viability, T/C",compound 0.316 µM,35.2% and 32.8% and 38.1%
same,"viability, T/C",compound 1 µM,30.4% and 28.5% and 34%
same,"viability, T/C",compound 3.16 µM,26.4% and 36.1% and 29.3%
same,"viability, T/C",compound 10 µM,20.9% and 19.6% and 22.6%
same,IC50,curve of compound,< 31.6 nM
COc1cccc2c1C(=O)c1c(O)c3c(c(O)c1C2=O)CC(O)(C(=O)CO)CC3OC1CC(N)C(O)C(C)O1 (stereo unspecified) + Cc1cnc(CNC(=O)c2c(=O)c3ccc(N4CCCN(C)CC4)nc3n3c2sc2ccccc23)cn1,IC50,[1],878 nM
same,IC50,[2],769 nM
same,IC50,[3],1040 nM
same,IC50,[4],869 nM
same,IC50,[5],684 nM
same,IC50,[6],399 nM
same,"viability, T/C",[7],88.3%
same,"viability, T/C","second compound 0.0316 µM, first compound 0.1 µM",87.2%
same,"viability, T/C",[8],81.8%
same,"viability, T/C","second compound 0.0316 µM, first compound 1 µM",44.3%
same,"viability, T/C","second compound 0.0316 µM, first compound 3.16 µM",23.4%
same,"viability, T/C","second compound 0.0316 µM, first compound 10 µM",11.9%
same,"viability, T/C",[9],83.8%
same,"viability, T/C","second compound 0.1 µM, first compound 0.1 µM",77.2%
same,"viability, T/C",[10],76.8%
same,"viability, T/C","second compound 0.1 µM, first compound 1 µM",40.7%
same,"viability, T/C","second compound 0.1 µM, first compound 3.16 µM",22.5%
same,"viability, T/C","second compound 0.1 µM, first compound 10 µM",10.7%
same,"viability, T/C",[11],73.5%
same,"viability, T/C","second compound 0.316 µM, first compound 0.1 µM",80.8%
same,"viability, T/C",[12],63.3%
same,"viability, T/C","second compound 0.316 µM, first compound 1 µM",52.1%
same,"viability, T/C","second compound 0.316 µM, first compound 3.16 µM",26.3%
same,"viability, T/C","second compound 0.316 µM, first compound 10 µM",6.61%
same,"viability, T/C",[13],63%
same,"viability, T/C","second compound 1 µM, first compound 0.1 µM",70.4%
same,"viability, T/C",[14],67.3%
same,"viability, T/C","second compound 1 µM, first compound 1 µM",45.4%
same,"viability, T/C","second compound 1 µM, first compound 3.16 µM",21.8%
same,"viability, T/C","second compound 1 µM, first compound 10 µM",4.42%
same,"viability, T/C",[15],64.2%
same,"viability, T/C","second compound 3.16 µM, first compound 0.1 µM",64.1%
same,"viability, T/C",[16],68%
same,"viability, T/C","second compound 3.16 µM, first compound 1 µM",40.9%
same,"viability, T/C","second compound 3.16 µM, first compound 3.16 µM",16%
same,"viability, T/C","second compound 3.16 µM, first compound 10 µM",0.58%
same,"viability, T/C",[17],57.3%
same,"viability, T/C","second compound 10 µM, first compound 0.1 µM",55.8%
same,"viability, T/C",[18],55.8%
same,"viability, T/C","second compound 10 µM, first compound 1 µM",35.3%
same,"viability, T/C","second compound 10 µM, first compound 3.16 µM",11.9%
same,"viability, T/C","second compound 10 µM, first compound 10 µM",0.28%
